{"source": "patent US10385005B2", "about": "“Compositions and methods for glucose transport inhibition” (OHIO UNIVERSITY, priority 2010, dated 2019)", "key": {"[1]": {"tested_on": "H1299 cells", "experiment": "Standard glucose uptake assay, H1299", "format": "cell-based, human", "details": "for Glucose transport inhibition (%) / level of glucose transport inhibition (in words): H1299; for % inhibition of basal glucose transport: Table 3, 30 μM in H1299 cells", "description": "(§1) Briefly, H1299 cancer cells were treated with or without the compounds (30 μM) in triplicates for 10 min before the glucose uptake assay. Cellular glucose uptake was measured by incubating cells in the glucose-free KRP buffer with […] [^3H]2-deoxyglucose (specific activity, 40 Ci/mmol) for 30 min in the absence or presence of compounds. After the cells were washed with ice-cold PBS and lysed by 0.2 N NaOH, the cell lysates were transferred to scintillation counting vials and the radioactivity in the cell lysates was quantified by liquid scintillation counting. Cell growth measurements were performed using an MTT assay in hexads in a 96-well tissue culture plate with 5,000 cells plated in each well. The cells were incubated in presence or absence of the compounds (30 μM) for 48 h. After incubation, cell viabilities were assayed using a 96-well SPECTRAMAX™ absorbance/fluorescence plate reader (Molecular Devices).\nCancer cells are treated with or without the compounds for 10 min before the glucose uptake assay. Cellular glucose uptake will be measured by incubating cells in glucose-free RPMI 1640 with […] [^3H]2-deoxyglucose (specific activity, 40 Ci/mmol) for 30 min in the absence and presence of compounds. After the cells are washed with ice-cold PBS and lysed, the cell lysates will be transferred to scintillation counting vials and the radioactivity in the cell lysates is quantified by liquid scintillation counting."}, "[2]": {"tested_on": "H1299 lung cancer cells", "experiment": "MTT cell growth / viability assay, H1299", "format": "cell-based, human", "details": "Table 2, 30 μM, 48 h", "description": "as §1\nMTT assays are performed by the following well-established method. In a 96 well tissue culture plate 10,000 cells are plated in each well. The cells are incubated in presence or absence of the compounds for 18 h. 3-(4,5-Dimethylthiazol-2-yl)-2,5-diphenyltetrazolium bromide (MTT) is dissolved in PBS (10 mg/ml) and filter sterilized. Three hours before the end of the incubation 20 μL of MTT solution is added to each well containing cells in a 96-well plate. The plate is incubated in an incubator at 37° C. for 3 h. Media is aspirated gently and 200 μL of DMSO is added to each well to dissolve formazan crystals. The absorbance is measured at 550 nm for cell viability."}, "[3]": {"details": "Table 2, 30 μM, untreated cells 0% inhibition"}}}
{"smiles": "O=C(Oc1ccc(Cl)cc1OC(=O)c1cc(O)c(O)c(O)c1)c1cc(O)c(O)c(O)c1", "note": "[Compound 1b]", "values": [{"measurement": "Glucose transport inhibition (%)", "setting": "[1]; [3]", "value": "84.4 ± 0.1", "unit": "%"}]}
{"smiles": "O=C(Oc1cccc(F)c1OC(=O)c1cc(O)c(O)c(O)c1)c1cc(O)c(O)c(O)c1", "note": "[Compound 1c]", "values": [{"measurement": "Glucose transport inhibition (%)", "setting": "[1]; [3]", "value": "81.1 ± 1.1", "unit": "%"}, {"measurement": "% inhibition of basal glucose transport", "setting": "[1]", "value": "81.0 ± 1.1", "unit": "%"}]}
{"smiles": "O=C(Oc1ccccc1OC(=O)c1cc(O)c(O)c(O)c1)c1cc(O)c(O)c(O)c1", "note": "[Compound 1d]", "values": [{"measurement": "level of glucose transport inhibition (in words)", "setting": "[1]; 30 μM", "value": "lower levels of inhibition relative to 1a and 2a"}, {"measurement": "Glucose transport inhibition (%)", "setting": "[1]; [3]", "value": "32.1 ± 6.2", "unit": "%"}]}
{"smiles": "COc1cccc(OC(=O)c2cc(O)cc(O)c2)c1OC(=O)c1cc(O)cc(O)c1", "note": "[Compound 1e]", "values": [{"measurement": "level of glucose transport inhibition (in words)", "setting": "[1]; 30 μM", "value": "little to no inhibition"}, {"measurement": "Glucose transport inhibition (%)", "setting": "[1]; [3]", "value": "69.4 ± 3.0", "unit": "%"}]}
{"smiles": "O=C(Oc1ccc(Cl)cc1OC(=O)c1cc(O)cc(O)c1)c1cc(O)cc(O)c1", "note": "[Compound 1f]", "values": [{"measurement": "Cell growth inhibition (%)", "setting": "[2]", "value": "38.8 ± 6.9", "unit": "%"}, {"measurement": "Glucose transport inhibition (%)", "setting": "[1]; [3]", "value": "95.2 ± 0.2", "unit": "%"}, {"measurement": "% inhibition of basal glucose transport", "setting": "[1]; listed as WZB-114", "value": "96.1 ± 0.1", "unit": "%"}]}
{"smiles": "O=C(Oc1cccc(F)c1OC(=O)c1cc(O)cc(O)c1)c1cc(O)cc(O)c1", "note": "[Compound 1g]", "values": [{"measurement": "Cell growth inhibition (%)", "setting": "[2]", "value": "35.0 ± 7.6", "unit": "%"}, {"measurement": "Glucose transport inhibition (%)", "setting": "[1]; [3]", "value": "94.0 ± 0.8", "unit": "%"}, {"measurement": "% inhibition of basal glucose transport", "setting": "[1]; listed as WZB-113", "value": "96.7 ± 1.6", "unit": "%"}]}
{"smiles": "COc1cccc(OC(=O)c2ccc(O)c(O)c2)c1OC(=O)c1ccc(O)c(O)c1", "note": "[Compound 1h]", "values": [{"measurement": "Cell growth inhibition (%)", "setting": "[2]", "value": "32.4 ± 2.7", "unit": "%"}, {"measurement": "level of glucose transport inhibition (in words)", "setting": "[1]; 30 μM", "value": "little to no inhibition"}, {"measurement": "Glucose transport inhibition (%)", "setting": "[1]; [3]", "value": 0, "unit": "%"}]}
{"smiles": "O=C(Oc1ccc(Cl)cc1OC(=O)c1ccc(O)c(O)c1)c1ccc(O)c(O)c1", "note": "[Compound 1i]", "values": [{"measurement": "Cell growth inhibition (%)", "setting": "[2]", "value": "45.2 ± 7.6", "unit": "%"}, {"measurement": "Glucose transport inhibition (%)", "setting": "[1]; [3]", "value": "94.4 ± 0.4", "unit": "%"}]}
{"smiles": "O=C(Oc1cccc(F)c1OC(=O)c1ccc(O)c(O)c1)c1ccc(O)c(O)c1", "note": "[Compound 1j]", "values": [{"measurement": "Cell growth inhibition (%)", "setting": "[2]", "value": "41.5 ± 5.5", "unit": "%"}, {"measurement": "Glucose transport inhibition (%)", "setting": "[1]; [3]", "value": "88.7 ± 1.8", "unit": "%"}]}
{"smiles": "COc1cccc(OC(=O)c2ccccc2O)c1OC(=O)c1ccccc1O", "note": "[Compound 1k]", "values": [{"measurement": "Cell growth inhibition (%)", "setting": "[2]", "value": "18.0 ± 4.4", "unit": "%"}, {"measurement": "Glucose transport inhibition (%)", "setting": "[1]; [3]", "value": "50.5 ± 7.6", "unit": "%"}]}
{"smiles": "O=C(Oc1ccc(Cl)cc1OC(=O)c1ccccc1O)c1ccccc1O", "note": "[Compound 1l]", "values": [{"measurement": "Cell growth inhibition (%)", "setting": "[2]", "value": "26.6 ± 2.3", "unit": "%"}, {"measurement": "Glucose transport inhibition (%)", "setting": "[1]; [3]", "value": "51.6 ± 5.9", "unit": "%"}]}
{"smiles": "O=C(Oc1cccc(F)c1OC(=O)c1ccccc1O)c1ccccc1O", "note": "[Compound 1m]", "values": [{"measurement": "Glucose transport inhibition (%)", "setting": "[1]; [3]", "value": "51.0 ± 6.6", "unit": "%"}]}
{"smiles": "COc1cccc(OC(=O)c2ccc(O)cc2)c1OC(=O)c1ccc(O)cc1", "note": "[Compound 1n]", "values": [{"measurement": "Cell growth inhibition (%)", "setting": "[2]", "value": "36.6 ± 6.7", "unit": "%"}, {"measurement": "Glucose transport inhibition (%)", "setting": "[1]; [3]", "value": "86.5 ± 2.8", "unit": "%"}]}
{"smiles": "O=C(Oc1ccc(Cl)cc1OC(=O)c1ccc(O)cc1)c1ccc(O)cc1", "note": "[Compound 1o]", "values": [{"measurement": "Glucose transport inhibition (%)", "setting": "[1]; [3]", "value": "79.0 ± 8.7", "unit": "%"}]}
{"smiles": "O=C(Oc1cccc(F)c1OC(=O)c1ccc(O)cc1)c1ccc(O)cc1", "note": "[Compound 1p]", "values": [{"measurement": "Cell growth inhibition (%)", "setting": "[2]", "value": "35.9 ± 4.7", "unit": "%"}, {"measurement": "Glucose transport inhibition (%)", "setting": "[1]; [3]", "value": "92.6 ± 0.7", "unit": "%"}]}
{"smiles": "O=C(Oc1ccccc1OC(=O)c1ccc(O)cc1)c1ccc(O)cc1", "note": "[Compound 1q]", "values": [{"measurement": "Glucose transport inhibition (%)", "setting": "[1]; [3]", "value": "57.5 ± 2.9", "unit": "%"}]}
{"smiles": "O=C(Oc1cccc(OC(=O)c2cc(O)cc(O)c2)c1OC(=O)c1cc(O)cc(O)c1)c1cc(O)cc(O)c1", "note": "[Compound 2b]", "values": [{"measurement": "Cell growth inhibition (%)", "setting": "[2]", "value": "41.0 ± 5.5", "unit": "%"}, {"measurement": "Glucose transport inhibition (%)", "setting": "[1]; [3]", "value": "98.7 ± 0.8", "unit": "%"}, {"measurement": "% inhibition of basal glucose transport", "setting": "[1]; listed as WZB-111", "value": "99.5 ± 0.3", "unit": "%"}]}
{"smiles": "O=C(Oc1cccc(OC(=O)c2ccc(O)c(O)c2)c1OC(=O)c1ccc(O)c(O)c1)c1ccc(O)c(O)c1", "note": "[Compound 2c]", "values": [{"measurement": "Cell growth inhibition (%)", "setting": "[2]", "value": "42.2 ± 6.1", "unit": "%"}, {"measurement": "Glucose transport inhibition (%)", "setting": "[1]; [3]", "value": "94.7 ± 0.4", "unit": "%"}]}
{"smiles": "O=C(Oc1cccc(OC(=O)c2ccccc2O)c1OC(=O)c1ccccc1O)c1ccccc1O", "note": "[Compound 2d]", "values": [{"measurement": "Glucose transport inhibition (%)", "setting": "[1]; [3]", "value": "74.7 ± 2.0", "unit": "%"}]}
{"smiles": "COc1cc(C(=O)Oc2cccc(OC)c2OC(=O)c2cc(OC)c(OC)c(OC)c2)cc(OC)c1OC", "note": "[Compound 7a]", "values": [{"measurement": "Cell growth inhibition (%)", "setting": "[2]", "value": "22.2 ± 3.4", "unit": "%"}, {"measurement": "level of glucose transport inhibition (in words)", "setting": "[1]; 30 μM", "value": "dramatically decreased"}, {"measurement": "Glucose transport inhibition (%)", "setting": "[1]; [3]", "value": "33.3 ± 3.6", "unit": "%"}]}
{"smiles": "Oc1cccc(CNc2ccc(Cl)cc2NCc2cccc(O)c2)c1", "note": "[WZB-138]", "values": [{"measurement": "Glucose transport inhibition (%)", "setting": "[1]; Table 12", "value": "52.2 ± 9.7", "unit": "%"}]}
{"smiles": "Oc1cccc(CNc2ccc(F)cc2NCc2cccc(O)c2)c1", "note": "[WZB-139]", "values": [{"measurement": "Glucose transport inhibition (%)", "setting": "[1]; Table 12", "value": "39.2 ± 0.8", "unit": "%"}]}
